Data on 31 compounds can be found in patent US20160200733A1, “SUBSTITUTED THIENO[2,3-B]PYRIDINE-2-CARBOXAMIDE ANALOGS AS POSITIVE ALLOSTERIC MODULATORS OF THE MUSCARINIC ACETYLCHOLINE RECEPTOR M4” (Vanderbilt University, priority 2013, published 2016).

The target in the first assay is T1, mAChR hM4 (Homo sapiens, UniProt P08173).
T1 construct: expressed in transfected cells; host or cells: CHO-K1 (Chinese hamster ovary) cells
T1 sequence (P08173 1-479): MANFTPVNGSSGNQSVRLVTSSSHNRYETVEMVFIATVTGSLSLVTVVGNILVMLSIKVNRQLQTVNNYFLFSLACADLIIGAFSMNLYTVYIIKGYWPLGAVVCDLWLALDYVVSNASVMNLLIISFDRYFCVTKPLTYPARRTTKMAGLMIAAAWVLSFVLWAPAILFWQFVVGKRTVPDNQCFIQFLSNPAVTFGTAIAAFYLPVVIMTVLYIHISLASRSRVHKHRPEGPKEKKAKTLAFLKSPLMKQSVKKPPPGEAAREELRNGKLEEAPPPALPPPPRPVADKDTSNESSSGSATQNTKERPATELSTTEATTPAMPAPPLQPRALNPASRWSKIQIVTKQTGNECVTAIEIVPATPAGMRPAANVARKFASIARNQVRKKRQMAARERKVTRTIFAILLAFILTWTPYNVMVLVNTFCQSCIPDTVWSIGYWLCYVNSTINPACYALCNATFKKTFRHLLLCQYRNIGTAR
The assay can be described thus: mAChR M4 cell-based functional assay (calcium flux, potentiation of EC20 acetylcholine response). As to conditions: % ACh maximum at 30 μM; mAChR hM4 cell-line. In a few lines: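 CHO-K1 cells expressing human M4, loaded with Fluo-4 Ca2+ dye; potentiation of an EC20 acetylcholine response read as increase in fluorescence static ratio. EC50 and Emax from concentration-dependent increase over the EC20 response.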
For orientation: Calcium flux is commonly read through the fluorescence of an indicator in the cells.
With `Cc1cnc2sc(C(=O)NCc3ccc(-c4cccnc4F)cc3)cc2c1C` [Compound 101, N-(4-(2-fluoropyridin-3-yl)benzyl)-4,5-dimethylthieno[2,3-b]pyridine-2-carboxamide], the maximum response (Emax) (in general, the greatest response seen or fitted, relative to the assay's reference) at 30 µM worked out at 41%.

As to `Cc1cnc2sc(C(=O)NC3COC3)cc2c1C` [Compound 102, 4,5-dimethyl-N-(oxetan-3-yl)thieno[2,3-b]pyridine-2-carboxamide], the Emax at 30 µM worked out at 60%. Same read-out and setting: the result for `Cc1cnc2sc(C(=O)NC3CN(c4cccnc4)C3)cc2c1C` [Compound 103, 4,5-dimethyl-N-(1-(pyridin-3-yl)azetidin-3-yl)thieno[2,3-b]pyridine-2-carboxamide] reads 76%.

For the compound `Cc1nc2sc(C(=O)NC3CC3)c(Cl)c2c(C)c1Cl` [Compound 118, 3,5-dichloro-N-cyclopropyl-4,6-dimethylthieno[2,3-b]pyridine-2-carboxamide], the Emax at 30 µM was 56%.

The assay is the same for the next values; noted with them: mAChR hM4 cell-line; >10,000 estimated for low potency compounds lacking a plateau.
`Cc1nc2sc(C(=O)NC3CC3)c(-c3cnn(C)c3)c2c(C)c1Cl` [Compound 90, 5-chloro-N-cyclopropyl-4,6-dimethyl-3-(1-methyl-1H-pyrazol-4-yl)thieno[2,3-b]pyridine-2-carboxamide]: the EC50 (usually the concentration at which the effect is half-maximal) is over 10 µM. Same read-out and setting: the result for `Cc1nc2sc(C(=O)NC3CCOC3)c(-c3cnn(C)c3)c2c(C)c1Cl` (centres unmarked) [Compound 91, 5-chloro-4,6-dimethyl-3-(1-methyl-1H-pyrazol-4-yl)-N-(tetrahydrofuran-3-yl)thieno[2,3-b]pyridine-2-carboxamide] reads over 10 µM. On to `Cc1nc2sc(C(=O)NC3CN(c4cccnc4)C3)c(-c3cnn(C)c3)c2c(C)c1Cl` [Compound 92, 5-chloro-4,6-dimethyl-3-(1-methyl-1H-pyrazol-4-yl)-N-(1-(pyridin-3-yl)azetidin-3-yl)thieno[2,3-b]pyridine-2-carboxamide], for which the EC50 was over 10 µM. On the same count and under the same terms, to `Cc1nc2sc(C(=O)NC3C4CC5CC(C4)CC3C5)c(-c3cnn(C)c3)c2c(C)c1Cl` (centres unmarked) [Compound 93, N-(adamantan-2-yl)-5-chloro-4,6-dimethyl-3-(1-methyl-1H-pyrazol-4-yl)thieno[2,3-b]pyridine-2-carboxamide] belongs over 10 µM; to `Cc1nc2sc(C(=O)NC3[C@H]4C[C@H]3C4)c(-c3cnn(C)c3)c2c(C)c1Cl` (stereo partly drawn) [Compound 94, N-((1R,3S)-bicyclo[1.1.1]pentan-2-yl)-5-chloro-4,6-dimethyl-3-(1-methyl-1H-pyrazol-4-yl)thieno[2,3-b]pyridine-2-carboxamide], over 10 µM.

For `Cc1nc2sc(C(=O)NCc3ccc(S(=O)(=O)C(F)(F)F)cc3)c(-c3cnn(C)c3)c2c(C)c1Cl` [Compound 95, 5-chloro-4,6-dimethyl-3-(1-methyl-1H-pyrazol-4-yl)-N-(4-((trifluoromethyl)sulfonyl)benzyl)thieno[2,3-b]pyridine-2-carboxamide], the EC50 is over 10 µM. As to `Cc1nc2sc(C(=O)N[C@H](C)C3CC3)c(-c3cnn(C)c3)c2c(C)c1Cl` [Compound 96, (R)-5-chloro-N-(1-cyclopropylethyl)-4,6-dimethyl-3-(1-methyl-1H-pyrazol-4-yl)thieno[2,3-b]pyridine-2-carboxamide], the EC50 was over 10 µM.

Regarding `Cc1nc2sc(C(=O)N3CCC3)c(-c3cnn(C)c3)c2c(C)c1Cl` [Compound 97, azetidin-1-yl(5-chloro-4,6-dimethyl-3-(1-methyl-1H-pyrazol-4-yl)thieno[2,3-b]pyridin-2-yl)methanone], the concentration for a half-maximal effect (EC50) was over 10 µM. For the compound `Cc1nc2sc(C(=O)NCc3cnn(-c4ccccc4)c3)c(-c3cnn(C)c3)c2c(C)c1Cl` [Compound 98, 5-chloro-4,6-dimethyl-3-(1-methyl-1H-pyrazol-4-yl)-N-((1-phenyl-1H-pyrazol-4-yl)methyl)thieno[2,3-b]pyridine-2-carboxamide], the EC50 is over 10 µM.

`COc1ccc(CNC(=O)c2sc3nc(C)c(Cl)c(C)c3c2-c2cnn(C)c2)cc1F` [Compound 99, 5-chloro-N-(3-fluoro-4-methoxybenzyl)-4,6-dimethyl-3-(1-methyl-1H-pyrazol-4-yl)thieno[2,3-b]pyridine-2-carboxamide]: the EC50 is over 10 µM. The same measure, in the same setting: to `Cc1cnc2sc(C(=O)NC3CN(c4ccc(C(F)(F)F)nc4)C3)cc2c1C` [Compound 100, 4,5-dimethyl-N-(1-(6-(trifluoromethyl)pyridin-3-yl)azetidin-3-yl)thieno[2,3-b]pyridine-2-carboxamide] belongs over 10 µM; to `Cc1cnc2sc(C(=O)NCc3ccc(-c4cccnc4F)cc3)cc2c1C` [Compound 101, N-(4-(2-fluoropyridin-3-yl)benzyl)-4,5-dimethylthieno[2,3-b]pyridine-2-carboxamide], 2.7 µM; to `Cc1cnc2sc(C(=O)NC3COC3)cc2c1C` [Compound 102, 4,5-dimethyl-N-(oxetan-3-yl)thieno[2,3-b]pyridine-2-carboxamide], over 10 µM. On the same count and under the same terms, the result for `Cc1cnc2sc(C(=O)NC3CN(c4cccnc4)C3)cc2c1C` [Compound 103, 4,5-dimethyl-N-(1-(pyridin-3-yl)azetidin-3-yl)thieno[2,3-b]pyridine-2-carboxamide] reads 0.58 µM; that for `Cc1cnc2sc(C(=O)NCc3ccc(-c4ccnnc4)s3)cc2c1C` [Compound 104, 4,5-dimethyl-N-((5-(pyridazin-4-yl)thiophen-2-yl)methyl)thieno[2,3-b]pyridine-2-carboxamide], over 10 µM. Same read-out and setting: the result for `Cc1nc2sc(C(=O)NCC3CCC3)c(-c3cnn(C)c3)c2c(C)c1Cl` [Compound 105, 5-chloro-N-(cyclobutylmethyl)-4,6-dimethyl-3-(1-methyl-1H-pyrazol-4-yl)thieno[2,3-b]pyridine-2-carboxamide] reads over 10 µM.

For `Cc1nc2sc(C(=O)N3CCCOCC3)c(-c3cnn(C)c3)c2c(C)c1Cl` [Compound 106, (5-chloro-4,6-dimethyl-3-(1-methyl-1H-pyrazol-4-yl)thieno[2,3-b]pyridin-2-yl)(1,4-oxazepan-4-yl)methanone], the EC50 was over 10 µM.

Consider `Cc1nc2sc(C(=O)N3CCN(C)CC3)c(-c3cnn(C)c3)c2c(C)c1Cl` [Compound 107, (5-chloro-4,6-dimethyl-3-(1-methyl-1H-pyrazol-4-yl)thieno[2,3-b]pyridin-2-yl)(4-methylpiperazin-1-yl)methanone], for which the EC50 was over 10 µM.

With `Cc1nc2sc(C(=O)N3CCC(F)(F)CC3)c(-c3cnn(C)c3)c2c(C)c1Cl` [Compound 108, (5-chloro-4,6-dimethyl-3-(1-methyl-1H-pyrazol-4-yl)thieno[2,3-b]pyridin-2-yl)(4,4-difluoropiperidin-1-yl)methanone], the concentration for a half-maximal effect (EC50) is over 10 µM. Still for that read-out and setting: the result for `Cc1nc2sc(C(=O)N3CC4C(C3)C4(C)C)c(-c3cnn(C)c3)c2c(C)c1Cl` (centres unmarked) [Compound 109, (5-chloro-4,6-dimethyl-3-(1-methyl-1H-pyrazol-4-yl)thieno[2,3-b]pyridin-2-yl)(6,6-dimethyl-3-azabicyclo[3.1.0]hexan-3-yl)methanone] reads over 10 µM; that for `Cc1nc2sc(C(=O)N3CCOCC3)c(-c3cnn(C)c3)c2c(C)c1Cl` [Compound 110, (5-chloro-4,6-dimethyl-3-(1-methyl-1H-pyrazol-4-yl)thieno[2,3-b]pyridin-2-yl)(morpholino)methanone], over 10 µM; that for `Cc1nc2sc(C(=O)N[C@@H](C)C3CC3)c(-c3cnn(C)c3)c2c(C)c1Cl` [Compound 111, (S)-5-chloro-N-(1-cyclopropylethyl)-4,6-dimethyl-3-(1-methyl-1H-pyrazol-4-yl)thieno[2,3-b]pyridine-2-carboxamide], over 10 µM. Same read-out and setting: the result for `Cc1nc2sc(C(=O)NCC3CC3)c(-c3cnn(C)c3)c2c(C)c1Cl` [Compound 112, 5-chloro-N-(cyclopropylmethyl)-4,6-dimethyl-3-(1-methyl-1H-pyrazol-4-yl)thieno[2,3-b]pyridine-2-carboxamide] reads over 10 µM; that for `Cc1nc2sc(C(=O)N3CCCN(C)CC3)c(-c3cnn(C)c3)c2c(C)c1Cl` [Compound 113, (5-chloro-4,6-dimethyl-3-(1-methyl-1H-pyrazol-4-yl)thieno[2,3-b]pyridin-2-yl)(4-methyl-1,4-diazepan-1-yl)methanone], over 10 µM; that for `Cc1nc2sc(C(=O)NC3COC3)c(-c3ccc4nonc4c3)c2c(C)c1Cl` [Compound 114, 3-(benzo[c][1,2,5]oxadiazol-5-yl)-5-chloro-4,6-dimethyl-N-(oxetan-3-yl)thieno[2,3-b]pyridine-2-carboxamide], over 10 µM.

In the case of `Cc1nc2sc(C(=O)NC3COC3)c(-c3cccs3)c2c(C)c1Cl` [Compound 115, 5-chloro-4,6-dimethyl-N-(oxetan-3-yl)-3-(thiophen-2-yl)thieno[2,3-b]pyridine-2-carboxamide], the EC50 is over 10 µM. Still for that read-out and setting: to `Cc1nc2sc(C(=O)NC3COC3)c(-c3ccc4nccnc4c3)c2c(C)c1Cl` [Compound 116, 5-chloro-4,6-dimethyl-N-(oxetan-3-yl)-3-(quinoxalin-6-yl)thieno[2,3-b]pyridine-2-carboxamide] belongs over 10 µM; to `Cc1nc2sc(C(=O)NC3COC3)c(-c3ccsc3)c2c(C)c1Cl` [Compound 117, 5-chloro-4,6-dimethyl-N-(oxetan-3-yl)-3-(thiophen-3-yl)thieno[2,3-b]pyridine-2-carboxamide], over 10 µM; to `Cc1nc2sc(C(=O)NC3CC3)c(Cl)c2c(C)c1Cl` [Compound 118, 3,5-dichloro-N-cyclopropyl-4,6-dimethylthieno[2,3-b]pyridine-2-carboxamide], 1.5 µM. On to `Cc1nc2sc(C(=O)NCC3CC3)c(Cl)c2c(C)c1Cl` [Compound 119, 3,5-dichloro-N-(cyclopropylmethyl)-4,6-dimethylthieno[2,3-b]pyridine-2-carboxamide], for which the 50% effective concentration (EC50) is over 10 µM. In the case of `Cc1nc2sc(C(=O)N[C@@H](C)C3CC3)c(Cl)c2c(C)c1Cl` [Compound 120, (S)-3,5-dichloro-N-(1-cyclopropylethyl)-4,6-dimethylthieno[2,3-b]pyridine-2-carboxamide], the EC50 is over 10 µM.
